Reference: the supplement of paper PMC12076712

What was measured:
Test in all cases: pIC50, kinobeads binding competition
Conditions in all cases: cell material: Jurkat lysate
PRKACB = PRKACB (UniProt P22694)
UniProt P07947 = biological target: UniProt P07947
ACVR2B = ACVR2B (UniProt Q13705)
TESK2 = TESK2 (UniProt Q96S53)
NEK7 = NEK7 (UniProt Q8TDX7)
NLK = biological target: T1, NLK (UniProt Q9UBE8)
T1 sequence (whole entry): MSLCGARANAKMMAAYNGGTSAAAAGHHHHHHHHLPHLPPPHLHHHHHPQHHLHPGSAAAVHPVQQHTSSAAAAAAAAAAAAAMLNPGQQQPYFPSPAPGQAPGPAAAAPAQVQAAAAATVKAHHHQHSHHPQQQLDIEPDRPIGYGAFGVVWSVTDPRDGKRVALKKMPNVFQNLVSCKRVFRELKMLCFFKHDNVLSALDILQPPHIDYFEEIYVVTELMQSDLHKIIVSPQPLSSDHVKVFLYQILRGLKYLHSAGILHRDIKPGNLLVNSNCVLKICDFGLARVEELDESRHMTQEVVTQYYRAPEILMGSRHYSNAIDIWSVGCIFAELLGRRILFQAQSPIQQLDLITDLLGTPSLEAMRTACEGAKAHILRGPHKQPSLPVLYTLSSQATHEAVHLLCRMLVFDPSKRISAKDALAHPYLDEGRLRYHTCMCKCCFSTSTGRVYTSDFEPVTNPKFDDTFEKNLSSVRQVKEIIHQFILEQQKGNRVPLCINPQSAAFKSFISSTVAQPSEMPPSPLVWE

UniProt P68400 = biological target: UniProt P68400
BLK = BLK (UniProt P51451)
TGFBR1 = biological target: T2, TGFBR1 (UniProt P36897)
T2 sequence (whole entry): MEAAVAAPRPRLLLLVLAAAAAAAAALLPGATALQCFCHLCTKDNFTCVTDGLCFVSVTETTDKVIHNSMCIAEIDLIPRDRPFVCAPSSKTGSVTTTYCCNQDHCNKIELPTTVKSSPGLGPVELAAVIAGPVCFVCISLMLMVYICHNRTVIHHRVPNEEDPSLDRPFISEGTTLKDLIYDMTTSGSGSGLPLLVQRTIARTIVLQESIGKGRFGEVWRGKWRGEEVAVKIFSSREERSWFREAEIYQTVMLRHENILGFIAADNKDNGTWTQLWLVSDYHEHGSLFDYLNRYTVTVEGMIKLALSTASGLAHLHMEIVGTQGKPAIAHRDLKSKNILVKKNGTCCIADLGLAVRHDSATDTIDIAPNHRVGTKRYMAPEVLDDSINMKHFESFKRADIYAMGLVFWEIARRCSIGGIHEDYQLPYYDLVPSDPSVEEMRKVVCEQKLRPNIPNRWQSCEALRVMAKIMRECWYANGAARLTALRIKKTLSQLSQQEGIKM

UniProt P17252 = biological target: UniProt P17252
MARK2 = MARK2 (UniProt Q7KZI7)
UniProt Q9Y2K2 = biological target: UniProt Q9Y2K2
UniProt Q13188 = biological target: T3, UniProt Q13188
T3 sequence (whole entry): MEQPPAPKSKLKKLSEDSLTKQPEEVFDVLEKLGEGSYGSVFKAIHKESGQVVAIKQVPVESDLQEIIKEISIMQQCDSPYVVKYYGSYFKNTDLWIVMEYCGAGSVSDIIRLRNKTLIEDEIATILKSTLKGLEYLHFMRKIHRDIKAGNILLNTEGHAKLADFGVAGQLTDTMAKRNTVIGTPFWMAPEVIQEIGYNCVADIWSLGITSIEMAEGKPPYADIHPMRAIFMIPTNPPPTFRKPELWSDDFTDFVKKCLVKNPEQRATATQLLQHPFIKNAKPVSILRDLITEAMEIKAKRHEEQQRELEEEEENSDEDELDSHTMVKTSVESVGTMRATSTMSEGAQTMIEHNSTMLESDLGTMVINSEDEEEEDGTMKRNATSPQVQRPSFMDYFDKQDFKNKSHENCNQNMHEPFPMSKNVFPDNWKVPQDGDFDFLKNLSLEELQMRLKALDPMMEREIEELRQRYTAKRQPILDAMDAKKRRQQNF

DDR1 = DDR1 (UniProt Q08345)
BRSK1 = biological target: T4, BRSK1 (UniProt Q8TDC3)
T4 sequence (whole entry): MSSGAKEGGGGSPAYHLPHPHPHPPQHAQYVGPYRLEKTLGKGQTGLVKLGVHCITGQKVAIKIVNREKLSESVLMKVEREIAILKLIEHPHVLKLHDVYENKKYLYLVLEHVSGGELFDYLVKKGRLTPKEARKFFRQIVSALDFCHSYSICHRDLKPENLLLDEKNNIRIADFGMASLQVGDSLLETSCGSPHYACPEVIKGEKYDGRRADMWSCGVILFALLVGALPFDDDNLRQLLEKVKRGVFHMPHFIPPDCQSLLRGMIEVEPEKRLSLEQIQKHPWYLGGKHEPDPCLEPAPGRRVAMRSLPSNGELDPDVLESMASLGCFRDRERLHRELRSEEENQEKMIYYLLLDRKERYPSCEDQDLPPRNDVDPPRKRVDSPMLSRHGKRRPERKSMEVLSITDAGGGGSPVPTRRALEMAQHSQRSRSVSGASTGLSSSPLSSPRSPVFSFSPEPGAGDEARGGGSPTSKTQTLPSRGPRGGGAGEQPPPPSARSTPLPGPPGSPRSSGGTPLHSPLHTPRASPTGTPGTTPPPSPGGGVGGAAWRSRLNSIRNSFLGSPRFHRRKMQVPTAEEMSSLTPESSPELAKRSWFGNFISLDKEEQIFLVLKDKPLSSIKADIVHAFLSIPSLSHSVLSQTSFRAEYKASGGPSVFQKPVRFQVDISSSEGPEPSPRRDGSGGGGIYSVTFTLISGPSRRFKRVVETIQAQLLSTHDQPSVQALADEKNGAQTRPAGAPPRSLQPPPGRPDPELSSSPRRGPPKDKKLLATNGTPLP

UniProt Q9Y2H1 = biological target: UniProt Q9Y2H1
LIMK2 = LIMK2 (UniProt P53671)

Measured: pIC50

UniProt Q9Y2K2, sequence (Q9Y2K2 whole entry, looked up): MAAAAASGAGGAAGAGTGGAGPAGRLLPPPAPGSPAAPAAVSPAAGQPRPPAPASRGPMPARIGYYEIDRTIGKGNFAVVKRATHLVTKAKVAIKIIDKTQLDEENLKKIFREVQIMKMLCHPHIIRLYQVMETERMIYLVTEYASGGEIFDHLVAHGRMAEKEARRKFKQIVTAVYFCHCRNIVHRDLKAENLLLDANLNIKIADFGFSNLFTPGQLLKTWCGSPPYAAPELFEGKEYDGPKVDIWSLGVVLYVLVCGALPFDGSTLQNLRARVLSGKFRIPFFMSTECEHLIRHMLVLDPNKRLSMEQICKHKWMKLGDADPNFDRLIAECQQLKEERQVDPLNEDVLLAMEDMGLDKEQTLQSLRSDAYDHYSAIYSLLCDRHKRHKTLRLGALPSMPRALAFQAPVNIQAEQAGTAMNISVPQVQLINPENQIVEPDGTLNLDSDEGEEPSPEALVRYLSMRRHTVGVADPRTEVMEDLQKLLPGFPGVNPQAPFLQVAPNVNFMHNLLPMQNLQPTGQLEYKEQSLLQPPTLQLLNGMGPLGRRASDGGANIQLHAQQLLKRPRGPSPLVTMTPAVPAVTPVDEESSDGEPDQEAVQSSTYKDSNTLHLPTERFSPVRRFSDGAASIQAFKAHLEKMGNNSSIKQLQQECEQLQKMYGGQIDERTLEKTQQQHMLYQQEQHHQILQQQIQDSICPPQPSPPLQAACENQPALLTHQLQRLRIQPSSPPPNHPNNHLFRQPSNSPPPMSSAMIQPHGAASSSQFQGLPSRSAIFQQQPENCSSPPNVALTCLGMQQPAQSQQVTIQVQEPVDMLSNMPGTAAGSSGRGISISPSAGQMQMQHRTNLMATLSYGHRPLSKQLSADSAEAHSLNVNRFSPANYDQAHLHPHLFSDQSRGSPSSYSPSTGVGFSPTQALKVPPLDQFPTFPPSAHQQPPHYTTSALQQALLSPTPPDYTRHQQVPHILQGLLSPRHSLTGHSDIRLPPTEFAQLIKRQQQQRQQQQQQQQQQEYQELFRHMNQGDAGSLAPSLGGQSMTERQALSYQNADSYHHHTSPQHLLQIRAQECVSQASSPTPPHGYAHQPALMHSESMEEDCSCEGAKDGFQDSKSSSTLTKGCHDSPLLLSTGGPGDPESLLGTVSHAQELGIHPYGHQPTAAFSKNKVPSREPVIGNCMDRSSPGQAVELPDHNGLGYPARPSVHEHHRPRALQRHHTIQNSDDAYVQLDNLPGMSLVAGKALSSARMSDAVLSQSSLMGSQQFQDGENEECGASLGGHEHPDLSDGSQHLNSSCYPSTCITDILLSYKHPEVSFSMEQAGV
UniProt P07947, sequence (P07947 whole entry, looked up): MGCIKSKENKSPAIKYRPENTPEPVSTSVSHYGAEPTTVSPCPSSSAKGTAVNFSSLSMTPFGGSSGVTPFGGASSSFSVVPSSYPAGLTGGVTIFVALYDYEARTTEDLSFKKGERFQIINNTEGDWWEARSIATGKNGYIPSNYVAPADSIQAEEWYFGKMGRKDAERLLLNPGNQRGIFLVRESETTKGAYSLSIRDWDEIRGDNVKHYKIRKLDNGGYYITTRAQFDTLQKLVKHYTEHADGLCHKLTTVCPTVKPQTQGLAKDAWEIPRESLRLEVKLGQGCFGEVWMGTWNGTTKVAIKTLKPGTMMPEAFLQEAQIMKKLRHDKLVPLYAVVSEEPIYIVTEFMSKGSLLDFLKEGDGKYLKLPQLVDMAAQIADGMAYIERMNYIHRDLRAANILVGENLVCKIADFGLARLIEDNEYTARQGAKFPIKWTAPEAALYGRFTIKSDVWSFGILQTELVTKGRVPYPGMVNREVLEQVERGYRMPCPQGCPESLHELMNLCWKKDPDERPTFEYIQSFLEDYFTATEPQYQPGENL
DDR1, sequence (Q08345 whole entry): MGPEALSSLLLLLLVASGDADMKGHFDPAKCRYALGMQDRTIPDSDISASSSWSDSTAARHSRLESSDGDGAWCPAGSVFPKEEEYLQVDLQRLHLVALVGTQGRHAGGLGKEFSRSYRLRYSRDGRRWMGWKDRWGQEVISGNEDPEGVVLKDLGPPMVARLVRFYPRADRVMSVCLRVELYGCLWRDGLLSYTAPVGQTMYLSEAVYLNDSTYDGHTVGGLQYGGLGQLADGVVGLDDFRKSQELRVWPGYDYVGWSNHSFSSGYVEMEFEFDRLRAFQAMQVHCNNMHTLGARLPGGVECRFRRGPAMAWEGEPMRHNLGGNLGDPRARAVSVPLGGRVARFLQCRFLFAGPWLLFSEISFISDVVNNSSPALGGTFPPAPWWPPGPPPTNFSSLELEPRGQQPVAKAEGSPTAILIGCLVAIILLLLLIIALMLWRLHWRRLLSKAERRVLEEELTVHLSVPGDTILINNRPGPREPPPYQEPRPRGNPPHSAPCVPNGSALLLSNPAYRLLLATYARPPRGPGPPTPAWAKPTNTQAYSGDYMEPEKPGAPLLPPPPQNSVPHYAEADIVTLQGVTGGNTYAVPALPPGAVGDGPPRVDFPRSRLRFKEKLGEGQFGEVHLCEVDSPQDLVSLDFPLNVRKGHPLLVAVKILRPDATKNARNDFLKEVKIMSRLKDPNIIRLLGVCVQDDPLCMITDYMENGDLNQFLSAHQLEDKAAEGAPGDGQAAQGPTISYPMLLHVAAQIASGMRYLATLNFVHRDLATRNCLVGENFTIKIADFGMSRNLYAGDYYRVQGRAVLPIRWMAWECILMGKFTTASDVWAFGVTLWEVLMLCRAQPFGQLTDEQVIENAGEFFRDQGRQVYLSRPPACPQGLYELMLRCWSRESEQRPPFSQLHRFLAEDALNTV
LIMK2, sequence (P53671 whole entry, looked up): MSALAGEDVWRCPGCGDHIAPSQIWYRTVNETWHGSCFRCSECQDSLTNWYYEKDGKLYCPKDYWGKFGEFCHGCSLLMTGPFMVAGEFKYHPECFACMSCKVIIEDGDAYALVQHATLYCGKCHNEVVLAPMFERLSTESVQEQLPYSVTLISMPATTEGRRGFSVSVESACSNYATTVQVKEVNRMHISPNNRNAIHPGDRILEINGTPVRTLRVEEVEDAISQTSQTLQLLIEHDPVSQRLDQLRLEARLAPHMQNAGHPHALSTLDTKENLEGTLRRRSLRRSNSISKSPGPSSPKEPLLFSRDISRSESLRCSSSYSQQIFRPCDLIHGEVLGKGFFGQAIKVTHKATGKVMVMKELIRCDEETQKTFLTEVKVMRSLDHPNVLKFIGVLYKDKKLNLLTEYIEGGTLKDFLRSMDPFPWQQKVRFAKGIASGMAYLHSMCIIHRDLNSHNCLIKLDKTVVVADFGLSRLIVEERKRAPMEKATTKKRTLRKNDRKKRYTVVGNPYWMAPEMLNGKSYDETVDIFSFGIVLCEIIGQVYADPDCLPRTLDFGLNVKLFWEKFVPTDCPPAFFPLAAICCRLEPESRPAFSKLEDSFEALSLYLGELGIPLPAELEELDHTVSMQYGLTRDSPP
ACVR2B, sequence (Q13705 whole entry): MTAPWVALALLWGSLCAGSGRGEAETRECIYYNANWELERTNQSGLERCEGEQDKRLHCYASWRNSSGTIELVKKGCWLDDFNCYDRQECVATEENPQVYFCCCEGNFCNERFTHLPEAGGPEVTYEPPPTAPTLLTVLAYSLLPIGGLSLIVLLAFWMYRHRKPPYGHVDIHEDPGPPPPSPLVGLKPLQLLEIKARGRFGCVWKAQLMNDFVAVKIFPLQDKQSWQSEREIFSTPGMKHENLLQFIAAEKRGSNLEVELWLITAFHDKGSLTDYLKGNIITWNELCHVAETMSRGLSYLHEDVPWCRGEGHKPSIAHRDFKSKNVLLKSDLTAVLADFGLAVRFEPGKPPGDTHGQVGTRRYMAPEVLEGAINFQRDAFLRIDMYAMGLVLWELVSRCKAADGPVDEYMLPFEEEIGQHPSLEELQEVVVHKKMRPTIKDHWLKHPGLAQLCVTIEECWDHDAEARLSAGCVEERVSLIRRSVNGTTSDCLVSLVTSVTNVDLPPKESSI
UniProt Q9Y2H1, sequence (Q9Y2H1 whole entry, looked up): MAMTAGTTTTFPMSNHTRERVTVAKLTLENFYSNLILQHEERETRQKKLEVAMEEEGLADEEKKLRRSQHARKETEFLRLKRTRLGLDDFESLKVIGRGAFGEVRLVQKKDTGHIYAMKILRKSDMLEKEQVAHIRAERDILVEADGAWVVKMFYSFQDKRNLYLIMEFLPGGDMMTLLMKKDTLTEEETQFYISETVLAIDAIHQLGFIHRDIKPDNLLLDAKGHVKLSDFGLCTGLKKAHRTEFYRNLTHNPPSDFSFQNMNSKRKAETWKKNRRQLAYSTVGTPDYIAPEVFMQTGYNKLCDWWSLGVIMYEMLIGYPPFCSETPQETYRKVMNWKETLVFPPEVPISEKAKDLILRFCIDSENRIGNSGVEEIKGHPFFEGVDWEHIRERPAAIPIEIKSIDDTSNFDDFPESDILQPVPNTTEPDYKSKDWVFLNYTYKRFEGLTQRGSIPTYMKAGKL
UniProt P68400, sequence (P68400 whole entry, looked up): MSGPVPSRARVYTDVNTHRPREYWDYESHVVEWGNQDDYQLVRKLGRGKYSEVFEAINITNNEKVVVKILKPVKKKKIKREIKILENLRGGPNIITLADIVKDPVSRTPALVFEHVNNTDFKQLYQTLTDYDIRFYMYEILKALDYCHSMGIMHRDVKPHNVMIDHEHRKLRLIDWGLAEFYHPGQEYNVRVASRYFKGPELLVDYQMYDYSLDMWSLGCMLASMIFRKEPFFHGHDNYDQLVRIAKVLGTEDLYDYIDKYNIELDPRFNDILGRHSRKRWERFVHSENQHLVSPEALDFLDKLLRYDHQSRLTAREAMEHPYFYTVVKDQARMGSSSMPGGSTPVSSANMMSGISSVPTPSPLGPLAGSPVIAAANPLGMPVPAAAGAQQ

CCc1cnn2c(NCc3ccc[n+]([O-])c3)cc(N3CCCC[C@H]3CCO)nc12 [dinaciclib]
< 4.52: PRKACB | UniProt P07947 | ACVR2B | TESK2 | NEK7 | NLK | UniProt P68400 | BLK | TGFBR1 | UniProt P17252 | MARK2 | UniProt Q9Y2K2 | UniProt Q13188 | DDR1 | BRSK1 | UniProt Q9Y2H1 | LIMK2
